Assay results from patent US11878072B2, “Compositions and methods utilizing poly(vinyl alcohol) and/or other polymers that aid particle transport in mucus” (priority 2012, dated 2024).

Source text: An aqueous dispersion containing pyrene and one of the stabilizers/surface-altering agents listed above was stirred with milling media until particle size was reduced below 500 nm (as measured by dynamic light scattering).

Row | Substance | Sample (relative) <Vmean>rel (relative sample velocity) | Sample <Vmean> (ensemble-average velocity) [um/s]
1 | Tween 80 | 0.17 | 0.94
2 | Tyloxapol | −0.02 | 0.42
